Source: patent US9034854B2, “Pharmaceutical composition comprising estetrol derivatives for use in cancer therapy” (priority 2002, dated 2015)
Blank lines part the entries; values can stand above or below the compound they belong to.

What was measured:
[1] = tested on: AP-1 site in the presence of ERα; conditions: cited from earlier work
[2] = tested on: AP-1 site in the presence of ERβ; conditions: cited from earlier work
[3] = molecular target: human ERα (Homo sapiens (Human), UniProt P03372); assay: Competitive steroid binding assay, ERα
[4] = molecular target: human ERβ (Homo sapiens (Human), UniProt Q92731); assay: Competitive steroid binding assay, ERβ
[5] = Single rising oral dose study in healthy postmenopausal volunteers; assay type: in vivo, human
Method: To determine the bioavailability and elimination half-life of estetrol after oral dosing in humans a single rising dosing study was performed in healthy postmenopausal volunteers. Volunteers (n=6) were randomly assigned to 0.1, 1 or 10 mg estetrol and blood samples (18 per volunteer) were obtained over a period of 72 hours. After thawing the plasma samples, liquid-liquid extraction (hexane and diethyl ether) was employed to prepare the estetrol-containing plasma samples for HPLC analysis (Perkin is Elmer 200) and tandem mass spectrometry using a PE Sciex 4000 tandem mass spectrometer and APCI interface. With each sample batch, a calibration curve with 6 calibrators was recorded.

[6] = tested on: DMBA-induced mammary tumours; assay: DMBA-induced tumour model in rats, prevention (Example 3); assay type: in vivo, rat; conditions: 8 weeks
[7] = tested on: DMBA-induced mammary tumours; assay: Second DMBA trial in rats, dose-response prevention study (Example 4); assay type: in vivo, rat; conditions: 8 weeks
Source text: Estetrol and tamoxifen were subsequently tested in a second DMBA trial in rats to evaluate the dose-response relationships in preventing rats from developing mammary tumours. The experimental procedure as set forth in example 3 was used as a prevention study to treat the animals (12 animals per group) for 8 consecutive weeks after tumour induction with oral dosages of either estetrol or tamoxifen. DMBA-exposed rats were randomly assigned to treatment groups, receiving oral treatment as follows: • Group 1 animals received placebo oral treatment in the form of a single daily dose of 3.0 ml/kg vehicle (20% wt/vol solution of hydroxypropyl-beta-cyclodextrin in water); • Group 2 animals received tamoxifen orally at a single daily dose of 1 mg/kg; • Group 3 animals received tamoxifen orally at a single daily dose of 2 mg/kg; • Group 4 animals received tamoxifen orally at a single daily dose of 3 mg/kg; • Group 5 animals received estetrol orally at a single daily dose of 0.5 mg/kg; • Group 6 animals received estetrol orally at a single daily dose of 1.0 mg/kg; • Group 7 animals received estetrol orally at a single daily dose of 1.5 mg/kg; • Group 8 animals received estetrol orally at a single daily dose of 2.0 mg/kg; • Group 9 animals received estetrol orally at a single daily dose of 2.5 mg/kg; and • Group 10 animals received estetrol orally at a single daily dose of 3.0 mg/kg
During the treatment period of 8 weeks, the emergence of palpable tumours and number of tumours were determined weekly. The number of mammary tumours at necropsy is depicted in FIG. 2.

[8] = tested on: pre-existing DMBA-induced mammary tumours; assay: DMBA-induced tumour model in rats, therapeutic design, pre-existing tumours (Example 5); assay type: in vivo, rat
Method: As set forth in example 3, female Sprague-Dawley rats were given 16 mg DMBA at the age of 50 days. Mammary tumour development was allowed to proceed until week 8 after DMBA treatment. Animals were subsequently allocated to one of six groups, receiving 4 weeks daily oral treatment with placebo, tamoxifen or estetrol as follows: • Group 1 animals received placebo treatment with a single daily dose of 3.0 ml/kg vehicle (20% wt/vol solution of hydroxypropyl-beta-cyclodextrin in water); • Group 2 animals were surgically castrated and received placebo treatment with 3.0 ml/kg/day vehicle; • Group 3 animals received tamoxifen at a dose of 1 mg/kg; • Group 4 animals received estetrol at a dose of 1.0 mg/kg; • Group 5 animals received estetrol at a dose of 3.0 mg/kg; • Group 6 animals received estetrol at a dose of 10.0 mg/kg. […] During therapy, the progression or disappearance of palpable mammary tumours and the size of the tumours were determined weekly. At necropsy, tumours were counted, measured and the change from baseline at the start of treatment was calculated.

[9] = Previous studies: agonistic models of bone resorption, hot flushing and vaginal cornification; assay type: in vivo; conditions: vaginal cornification
Source text: Eighty-four female Sprague-Dawley rats (Harlan, The Netherlands) were group housed, maintained in a 12-hr light/dark environment, and fed a Soya Free Diet (SDS England) and water ad libitum. Animals were weighed on a weekly basis.

[10] = tested on: cultured endothelial cells of human umbilical cord veins; conditions: cited from earlier work

Sequence of human ERα (P03372 whole entry): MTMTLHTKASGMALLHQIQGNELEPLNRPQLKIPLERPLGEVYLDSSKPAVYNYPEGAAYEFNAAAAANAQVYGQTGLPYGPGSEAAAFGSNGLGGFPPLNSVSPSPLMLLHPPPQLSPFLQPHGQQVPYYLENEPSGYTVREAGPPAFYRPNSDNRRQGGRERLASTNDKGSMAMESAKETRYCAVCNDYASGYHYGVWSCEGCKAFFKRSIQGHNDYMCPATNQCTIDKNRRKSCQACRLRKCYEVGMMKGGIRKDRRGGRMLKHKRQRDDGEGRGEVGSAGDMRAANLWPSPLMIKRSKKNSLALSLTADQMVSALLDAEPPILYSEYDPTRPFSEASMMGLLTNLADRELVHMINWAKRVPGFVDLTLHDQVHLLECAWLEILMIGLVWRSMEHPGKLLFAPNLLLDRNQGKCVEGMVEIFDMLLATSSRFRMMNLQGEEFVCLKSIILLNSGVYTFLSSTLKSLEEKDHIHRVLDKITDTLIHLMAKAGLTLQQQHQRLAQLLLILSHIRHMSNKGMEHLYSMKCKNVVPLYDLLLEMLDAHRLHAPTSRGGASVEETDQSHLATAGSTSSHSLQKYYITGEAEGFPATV
Sequence of human ERβ (Q92731 whole entry): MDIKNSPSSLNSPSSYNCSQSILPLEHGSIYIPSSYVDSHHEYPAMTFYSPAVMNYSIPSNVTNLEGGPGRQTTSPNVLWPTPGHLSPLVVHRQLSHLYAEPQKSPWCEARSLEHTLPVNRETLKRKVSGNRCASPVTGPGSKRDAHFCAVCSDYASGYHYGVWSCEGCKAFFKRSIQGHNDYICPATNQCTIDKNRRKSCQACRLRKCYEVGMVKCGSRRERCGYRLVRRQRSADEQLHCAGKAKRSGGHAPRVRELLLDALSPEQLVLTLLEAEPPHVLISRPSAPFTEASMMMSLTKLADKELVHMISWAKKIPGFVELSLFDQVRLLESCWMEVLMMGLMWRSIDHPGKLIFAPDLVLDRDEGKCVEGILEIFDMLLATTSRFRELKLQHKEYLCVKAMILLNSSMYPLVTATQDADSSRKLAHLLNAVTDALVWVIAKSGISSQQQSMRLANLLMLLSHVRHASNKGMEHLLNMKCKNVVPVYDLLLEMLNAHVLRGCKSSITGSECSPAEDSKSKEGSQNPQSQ

Structure (SMILES): O=C(c1ccc(OCCN2CCCCC2)cc1)c1c(-c2ccc(O)cc2)sc2cc(O)ccc12 [raloxifene]
- Effect on AP-1 site [1]: inhibit
- Effect on AP-1 site [2]: stimulate

- Ki [3]: 4.9 nM
- Relative ERα/ERβ preference ([3]; preference for binding to ERα protein versus ERβ protein): 400%
- Ki [4]: 19 nM
- half-life ([5]; female, human, plasma, po, oral dosing, human postmenopausal subjects, read-out: Elimination half-life): > 20 h
- AUC values, dose-linearity ([5]; oral 0.1, 1, 10 mg, plasma): good dose-linearity
- Oral absorption ([5]; over the entire dose range 0.1-10 mg oral): well absorbed
Structure (SMILES): C[C@]12CC[C@@H]3c4ccc(O)cc4CC[C@H]3[C@@H]1[C@@H](O)[C@@H](O)[C@@H]2O [E4, 1,3,5 (10)-estratrien-3,15α,16α,17β-tetrol]
- Tolerability ([5]; oral dose increased from 0.1 to 1 and 10 mg, postmenopausal volunteers): Good tolerability
- Efficacy in preventing growth of DMBA-induced tumours relative to tamoxifen ([6]; E4 […] vs tamoxifen 3 mg/kg/day orally): as effective as tamoxifen
- Mammary tumour formation ([7]; estetrol 0.5-3.0 mg/kg/day orally): dose-dependent inhibition of mammary tumour formation
- Protection from developing tumours ([7]; estetrol 2.5 and 3.0 mg/kg/day orally): completely protected rats from developing tumours
- Tumour number at necropsy ([8]; estetrol 1 mg/kg/day orally 4 weeks, n=9, 16 at start of treatment): 23
- Tumour number at necropsy ([8]; estetrol 3 mg/kg/day orally 4 weeks, n=9, 16 at start of treatment): 15
- Tumour number at necropsy ([8]; estetrol 10 mg/kg/day orally 4 weeks, n=10, 18 at start of treatment): 7
- Tumour size, percentage change from baseline, net group effect ([8]; estetrol 1, 3, 10 mg/kg/day orally 4 weeks): dose dependent pronounced tumour size reduction
- Efficacy, net disappearance of mammary tumours ([8]; estetrol orally 4 weeks, started 8 weeks after DMBA): comparable to ovariectomy
- In vivo estrogenicity, relative potency ([9]; 0.125 mg/kg/day EE vs […] E4, hot flushing): equipotency
- In vivo estrogenicity, relative potency ([9]; […] EE vs 0.5 mg/kg/day E4, hot flushing): equipotency
- Effect on proliferation of vascular endothelial cells [10]: No significant effect

Structure (SMILES): CC/C(=C(\c1ccccc1)c1ccc(OCCN(C)C)cc1)c1ccccc1 [tamoxifen, reference compound]
- Development of mammary tumours ([6]; tamoxifen 3 mg/kg/day orally): inhibiting the development of mammary tumours
- Palpable tumours developed ([7]; tamoxifen 1, 2 and 3 mg/kg/day orally): In none of the tamoxifen groups (1, 2, and 3 mg/kg/day) palpable tumours developed
- Tumour size, percentage change from baseline, net group effect ([8]; tamoxifen 1 mg/kg/day orally 4 weeks): increase in tumour size as net group effect
- Efficacy against further development and progression of mammary tumours ([8]; tamoxifen 1 mg/kg/day orally 4 weeks, started 8 weeks after DMBA): ineffective
- Tumour number at necropsy ([8]; tamoxifen 1 mg/kg/day orally 4 weeks, n=8, 15 at start of treatment): 19
- Effect on AP-1 site [1]: inhibit
- Effect on AP-1 site [2]: stimulate

Structure (SMILES): C[C@]12CC[C@@H]3c4ccc(O)cc4C[C@@H](CCCCCCCCC[S+]([O-])CCCC(F)(F)C(F)(F)F)[C@H]3[C@@H]1CC[C@@H]2O (stereo partly shown) [ICI-182,780]
- Effect on AP-1 site [1]: inhibit
- Effect on AP-1 site [2]: stimulate

Structure (SMILES): C[C@]12CC[C@@H]3c4ccc(O)cc4CC[C@H]3[C@@H]1CC[C@@H]2O [E2, 17β-estradiol]
- Effect on AP-1 site [1]: activates
- Effect on AP-1 site [2]: inhibits
